Experimental data as given in ChEMBL document CHEMBL3885881, “DrugMatrix”.

Organism: Rattus norvegicus
Assay: DrugMatrix - Regimen: Daily Repeat
Type: toxicity, organism-based, Sprague-Dawley
Parameters: regimen Daily Repeat, gender Male, age 6-8 weeks
Conditions: in vivo, po, route oral GAVAGE, […]; for ABSOLUTE BASOPHIL / ABSOLUTE EOSINOPHIL / ABSOLUTE LYMPHOCYTE / ABSOLUTE MONOCYTE / ABSOLUTE SEGMENTED NEUTROPHIL / BASOPHIL / EOSINOPHIL / ERYTHROCYTE COUNT / HEMATOCRIT / HEMOGLOBIN / LEUKOCYTE COUNT / LYMPHOCYTE / MEAN CORPUSCULAR HEMOGLOBIN / MEAN CORPUSCULAR HEMOGLOBIN CONCENTRATION / MEAN CORPUSCULAR VOLUME / MONOCYTE / NEUTROPHIL / NUCLEATED RED BLOOD CELLS / PLATELET COUNT: tissue Blood; for ALANINE AMINOTRANSFERASE / ALBUMIN / ALKALINE PHOSPHATASE / ASPARTATE AMINOTRANSFERASE / BLOOD UREA NITROGEN / CARBON DIOXIDE / CHLORIDE / CHOLESTEROL / CREATINE PHOSPHOKINASE / CREATININE / GLUCOSE / LACTATE DEHYDROGENASE / LIPASE / PHOSPHORUS / POTASSIUM / SODIUM / TOTAL BILIRUBIN / TOTAL PROTEIN / URIC ACID: tissue Plasma
[1] = 0 mg/kg, 72 h, dose level Control, time 3 day
[2] = 0 mg/kg, 120 h, dose level Control, time 5 day
[3] = 35 mg/kg, 72 h, dose level Low, time 3 day
[4] = 35 mg/kg, 120 h, dose level Low, time 5 day

CC(=O)Oc1ccccc1C(=O)O [ASPIRIN]
ABSOLUTE BASOPHIL [1]: 0 CELLS/uL
ABSOLUTE EOSINOPHIL [1]: 0 CELLS/uL
ABSOLUTE LYMPHOCYTE [1]: 6275.67 CELLS/uL
ABSOLUTE MONOCYTE [1]: 40.67 CELLS/uL
ABSOLUTE SEGMENTED NEUTROPHIL [1]: 633.67 CELLS/uL
BASOPHIL [1]: 0%
EOSINOPHIL [1]: 0%
ERYTHROCYTE COUNT [1]: 5.2 x10E6/uL
HEMATOCRIT [1]: 32.78%
HEMOGLOBIN [1]: 12.98 G/DL
LEUKOCYTE COUNT [1]: 6.95 x10E3/uL
LYMPHOCYTE [1]: 90.17%
MEAN CORPUSCULAR HEMOGLOBIN [1]: 24.97 pg
MEAN CORPUSCULAR HEMOGLOBIN CONCENTRATION [1]: 39.62 G/DL
MEAN CORPUSCULAR VOLUME [1]: 63.03 fL
MONOCYTE [1]: 0.67%
NEUTROPHIL [1]: 9.17%
NUCLEATED RED BLOOD CELLS [1]: 0 /100WBC
PLATELET COUNT [1]: 1082.83 x10E3/uL
ALANINE AMINOTRANSFERASE [1]: 69.67 u/L
ALBUMIN [1]: 4.15 G/DL
ALKALINE PHOSPHATASE [1]: 430.5 u/L
ASPARTATE AMINOTRANSFERASE [1]: 90.83 u/L
BLOOD UREA NITROGEN [1]: 13 mg/dL
CARBON DIOXIDE [1]: 33 mmol/L
CHLORIDE [1]: 99.17 MEQ/L
CHOLESTEROL [1]: 70.5 mg/dL
CREATINE PHOSPHOKINASE [1]: 253.33 u/L
CREATININE [1]: 0.13 mg/dL
GLUCOSE [1]: 157.17 mg/dL
LACTATE DEHYDROGENASE [1]: 85 u/L
LIPASE [1]: 10 u/L
PHOSPHORUS [1]: 10.2 mg/dL
POTASSIUM [1]: 5.78 MEQ/L
SODIUM [1]: 144.12 MEQ/L
TOTAL BILIRUBIN [1]: 0.2 mg/dL
TOTAL PROTEIN [1]: 5.8 G/DL
URIC ACID [1]: 0.8 mg/dL
ABSOLUTE BASOPHIL [2]: 0 CELLS/uL
ABSOLUTE EOSINOPHIL [2]: 0 CELLS/uL
ABSOLUTE LYMPHOCYTE [2]: 10431 CELLS/uL
ABSOLUTE MONOCYTE [2]: 90.5 CELLS/uL
ABSOLUTE SEGMENTED NEUTROPHIL [2]: 1111.83 CELLS/uL
BASOPHIL [2]: 0%
EOSINOPHIL [2]: 0%
ERYTHROCYTE COUNT [2]: 5.51 x10E6/uL
HEMATOCRIT [2]: 34.67%
HEMOGLOBIN [2]: 13.5 G/DL
LEUKOCYTE COUNT [2]: 11.63 x10E3/uL
LYMPHOCYTE [2]: 89.67%
MEAN CORPUSCULAR HEMOGLOBIN [2]: 24.5 pg
MEAN CORPUSCULAR HEMOGLOBIN CONCENTRATION [2]: 38.95 G/DL
MEAN CORPUSCULAR VOLUME [2]: 62.87 fL
MONOCYTE [2]: 0.67%
NEUTROPHIL [2]: 9.67%
NUCLEATED RED BLOOD CELLS [2]: 0 /100WBC
PLATELET COUNT [2]: 1052.67 x10E3/uL
ALANINE AMINOTRANSFERASE [2]: 54.67 u/L
ALBUMIN [2]: 4.15 G/DL
ALKALINE PHOSPHATASE [2]: 359.83 u/L
ASPARTATE AMINOTRANSFERASE [2]: 83 u/L
BLOOD UREA NITROGEN [2]: 13.5 mg/dL
CARBON DIOXIDE [2]: 27.17 mmol/L
CHLORIDE [2]: 98.5 MEQ/L
CHOLESTEROL [2]: 66.83 mg/dL
CREATINE PHOSPHOKINASE [2]: 256.17 u/L
CREATININE [2]: 0.19 mg/dL
GLUCOSE [2]: 171.33 mg/dL
LACTATE DEHYDROGENASE [2]: 91.5 u/L
LIPASE [2]: 10.5 u/L
PHOSPHORUS [2]: 8.72 mg/dL
POTASSIUM [2]: 5.34 MEQ/L
SODIUM [2]: 142.53 MEQ/L
TOTAL BILIRUBIN [2]: 0.2 mg/dL
TOTAL PROTEIN [2]: 6.05 G/DL
URIC ACID [2]: 0.6 mg/dL
ABSOLUTE BASOPHIL [3]: 0 CELLS/uL
ABSOLUTE EOSINOPHIL [3]: 58.67 CELLS/uL
ABSOLUTE LYMPHOCYTE [3]: 9448 CELLS/uL
ABSOLUTE MONOCYTE [3]: 29.33 CELLS/uL
ABSOLUTE SEGMENTED NEUTROPHIL [3]: 530.67 CELLS/uL
BASOPHIL [3]: 0%
EOSINOPHIL [3]: 0.67%
ERYTHROCYTE COUNT [3]: 4.69 x10E6/uL
HEMATOCRIT [3]: 30.17%
HEMOGLOBIN [3]: 12.1 G/DL
LEUKOCYTE COUNT [3]: 10.07 x10E3/uL
LYMPHOCYTE [3]: 93.33%
MEAN CORPUSCULAR HEMOGLOBIN [3]: 25.83 pg
MEAN CORPUSCULAR HEMOGLOBIN CONCENTRATION [3]: 40.1 G/DL
MEAN CORPUSCULAR VOLUME [3]: 64.4 fL
MONOCYTE [3]: 0.33%
NEUTROPHIL [3]: 5.67%
NUCLEATED RED BLOOD CELLS [3]: 0 /100WBC
PLATELET COUNT [3]: 951 x10E3/uL
ALANINE AMINOTRANSFERASE [3]: 86 u/L
ALBUMIN [3]: 4.17 G/DL
ALKALINE PHOSPHATASE [3]: 369 u/L
ASPARTATE AMINOTRANSFERASE [3]: 104.67 u/L
BLOOD UREA NITROGEN [3]: 13.5 mg/dL
CARBON DIOXIDE [3]: 32 mmol/L
CHLORIDE [3]: 101.33 MEQ/L
CHOLESTEROL [3]: 79.33 mg/dL
CREATINE PHOSPHOKINASE [3]: 304 u/L
CREATININE [3]: 0.15 mg/dL
GLUCOSE [3]: 156 mg/dL
LACTATE DEHYDROGENASE [3]: 85.33 u/L
LIPASE [3]: 23.33 u/L
PHOSPHORUS [3]: 9.53 mg/dL
POTASSIUM [3]: 5.79 MEQ/L
SODIUM [3]: 145.73 MEQ/L
TOTAL BILIRUBIN [3]: 0.2 mg/dL
TOTAL PROTEIN [3]: 5.7 G/DL
URIC ACID [3]: 0.53 mg/dL
ABSOLUTE BASOPHIL [4]: 0 CELLS/uL
ABSOLUTE EOSINOPHIL [4]: 0 CELLS/uL
ABSOLUTE LYMPHOCYTE [4]: 9532 CELLS/uL
ABSOLUTE MONOCYTE [4]: 142 CELLS/uL
ABSOLUTE SEGMENTED NEUTROPHIL [4]: 926 CELLS/uL
BASOPHIL [4]: 0%
EOSINOPHIL [4]: 0%
ERYTHROCYTE COUNT [4]: 5.39 x10E6/uL
HEMATOCRIT [4]: 34.33%
HEMOGLOBIN [4]: 13.4 G/DL
LEUKOCYTE COUNT [4]: 10.6 x10E3/uL
LYMPHOCYTE [4]: 90%
MEAN CORPUSCULAR HEMOGLOBIN [4]: 24.83 pg
MEAN CORPUSCULAR HEMOGLOBIN CONCENTRATION [4]: 39.03 G/DL
MEAN CORPUSCULAR VOLUME [4]: 63.63 fL
MONOCYTE [4]: 1.33%
NEUTROPHIL [4]: 8.67%
NUCLEATED RED BLOOD CELLS [4]: 0 /100WBC
PLATELET COUNT [4]: 1012.67 x10E3/uL
ALANINE AMINOTRANSFERASE [4]: 59 u/L
ALBUMIN [4]: 4.1 G/DL
ALKALINE PHOSPHATASE [4]: 356.67 u/L
ASPARTATE AMINOTRANSFERASE [4]: 89.33 u/L
BLOOD UREA NITROGEN [4]: 11.33 mg/dL
CARBON DIOXIDE [4]: 27.67 mmol/L
CHLORIDE [4]: 98.67 MEQ/L
CHOLESTEROL [4]: 69 mg/dL
CREATINE PHOSPHOKINASE [4]: 329.67 u/L
CREATININE [4]: 0.17 mg/dL
GLUCOSE [4]: 164.33 mg/dL
LACTATE DEHYDROGENASE [4]: 89 u/L
LIPASE [4]: 11.67 u/L
PHOSPHORUS [4]: 9.13 mg/dL
POTASSIUM [4]: 5.65 MEQ/L
SODIUM [4]: 145.03 MEQ/L
TOTAL BILIRUBIN [4]: 0.2 mg/dL
TOTAL PROTEIN [4]: 6.13 G/DL
URIC ACID [4]: 0.57 mg/dL
